Experimental data from US10919878B2, “MCT4 inhibitors and uses thereof” (CHARLES R. DREW UNIVERSITY OF MEDICINE AND SCIENCE, priority 2018, dated 2021).

Experiments:
MDA-MB-231 cells = experiment: Viability/cytotoxicity assay (growth inhibition); format: cell-based; conditions: Homo sapiens, read-out: IC50, inhibition of cell proliferation
Protocol: Human cell lines MDA-MB-231 cells were obtained from ATCC (Rockville, Md.). These cells were authenticated by Laragen, Inc. (Culver City, Calif.), by short tandem repeat (STR) profiling, monitoring cell morphology and biological behavior, and tested to exclude mycoplasma contamination prior to use.
A viability/cytotoxicity assay was performed by culturing cells in 96-well plates. The following day the cells were treated with ½ serial dilutions of each compound or the solvent (DMSO) alone as a control. The amount of solvent was the same in all the conditions and each condition was tested in duplicate or triplicate. After 5 days incubation, the effect of the compounds on cell proliferation were determined by either MTT (3-(4,5-dimethylthiazol-2-yl)-2,5-diphenyltetrazolium bromide, Sigma-Aldrich, St. Louis, Mo.) or bioluminescence assay (Cell Titer Glo, Promega, Madison, Wis.). After incubation of the cells with MTT (1 mg/ml), the developed color was dissolved in DMSO and read by a plate reader. The bioluminescence assays were performed according to the manufacturer's recommendation. Growth inhibition rates were determined by comparing the read out for each compound dilution versus the control and from the growth inhibition curves from which the IC50 values were calculated. Each assay was performed at least twice.

MDA-MB-231 tumors = experiment: MDA-MB-231 TNBC xenograft tumor model in nude mice; format: in vivo; conditions: 20 mg/kg intraperitoneally, up to 4 weeks; for tumor growth (size and weight): daily 5 days then 2 days rest
Protocol: Values represent mean±SD, n=6-8 mice/group.
Values represent mean±SD, n=8 mice/group.
The anti-tumor effects of the MCT4 inhibitors CB-1, CB-2 and/or CB-3 were evaluated in nude mice implanted with human triple negative breast cancer (TNBC) cells (MDA-MB-231). For TNBC xenograft tumor models, MDA-MB-231 (5×10^6) cancer cells were injected subcutaneously into the flanks of female athymic nude mice (nu/nu, 4 weeks old). Two weeks after the injection of cancer cells, xenograft tumors were found in the injection site. Tumor dimensions were measured, and volume was calculated by length (L), width (W), and height (H) using the formula (volume=π/6×L×W×H). After the tumors reached a volume of 50 mm^3, the mice were injected intraperitoneally with 20 mg/kg CB-1, CB-2, CB-3 or with the vehicle solution (DMSO; i.e., Control) for up to 4 weeks. The MCT4 inhibitors were injected daily for 5 days and then mice were rested for 2 days.

MCT4 = target: T1, MCT4 (Homo sapiens, UniProt O15427); experiment: Lactate secretion assay (LACTATE-GLO Assay); format: cell-based; conditions: MDA-MB-231 cells, compounds 2.5 μM, 48 h
T1 construct: host or cells: MDA-MB-231
T1 sequence (O15427 1-465): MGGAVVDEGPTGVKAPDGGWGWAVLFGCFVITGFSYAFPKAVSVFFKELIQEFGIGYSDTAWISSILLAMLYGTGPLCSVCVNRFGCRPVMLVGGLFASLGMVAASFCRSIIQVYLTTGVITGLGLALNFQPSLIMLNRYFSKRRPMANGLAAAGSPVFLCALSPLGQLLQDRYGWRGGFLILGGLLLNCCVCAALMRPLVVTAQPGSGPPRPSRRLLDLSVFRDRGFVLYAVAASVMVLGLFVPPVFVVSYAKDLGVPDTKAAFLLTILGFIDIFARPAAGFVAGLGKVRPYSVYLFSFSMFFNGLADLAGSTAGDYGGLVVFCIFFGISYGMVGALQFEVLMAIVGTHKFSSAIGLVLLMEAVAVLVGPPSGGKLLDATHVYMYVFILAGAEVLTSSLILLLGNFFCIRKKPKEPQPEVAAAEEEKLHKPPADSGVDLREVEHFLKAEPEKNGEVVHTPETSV
Protocol: Briefly, MDA-MB-231 cells were incubated with the various compounds (2.5 μM) for 48 h followed by a lactate secretion assay. […] Small compound names are shown on the x-axis. Diclofenac was used as a positive control.
MDA-MB-231 cells were incubated with various candidate compounds (2.5 μM) for 48 hours followed by lactate secretion assay with a LACTATE-GLO™ Assay kit (Promega Corporation, Madison, Wis.) according to the manufacturer's protocol.

SMILES | IC50 (MDA-MB-231 cells) | tumor growth (size and weight) (MDA-MB-231 tumors) | body weight of the mice (MDA-MB-231 tumors) | signs of systemic toxicity (MDA-MB-231 tumors) | lactate secretion inhibition (MCT4)
O=C(Nc1cc(Cl)ccc1Oc1ccc2ccccc2c1Br)c1cc(Cl)cc(I)c1O [CB-1, N-{2-[(1-bromo-2-naphthyl)oxy]-5-chlorophenyl}-5-chloro-2-hydroxy-3-iodobenzamide] | 35.3 µM | significantly inhibited tumor growth | began to lose weight | – | –
O=C(Nc1ccc(Nc2cc(-n3ccnc3)ncn2)cc1)Nc1cc(F)cc(F)c1 [CB-3, N-(3,5-difluorophenyl)-N′-(4-{[6-(1H-imidazol-1-yl)-4-pyrimidinyl]amino}phenyl)urea] | – | strikingly reduced the size and weight | without affecting body weight | no detectable signs of systemic toxicity | most effective
